No end group written: not given here.
Tests used:
pH of the composition = assay type: physicochemical; settings: 5% w/v in deionized water, clear solution
[1] = PFD5 sodium dissolved in HCl: peptide to acid mole ratio for stable hydrogel, pKa; assay type: physicochemical; settings: aqueous HCl solution (hydrogel); 1% (w/v) PFD5; pH at which half of the Asp residues are assumed protonated
Protocol: Different mole ratios of PFD5 sodium to HCl were generated by dissolving the peptide in an HCl solution using a magnetic stirrer. Following mixing for a few minutes, hydrogel formation was tested (Table 2 and FIG. 1A-1B). […] At a 1:6 ratio, the stable hydrogel appeared opaquer.
At a 1:4 ratio, the stable hydrogel appeared opaquer.
At this peptide concentration, the mole ratio of the peptide to acid was determined to be 1:1.67 to afford a stable clear hydrogel (FIG. 1B).

Row | Substance | pH of solution (pH of the composition) | pKa [1]
1 | Doxycycline hyclate | 1.93 | 
2 | PDFDFDFDFDFDP [PFD5, Pro-(Asp-Phe)5-Asp-Pro] |  | ~5.95
